Results on 35 compounds are retold here after patent publication US20130158031A1 (SU ZHOU JING HONG BIOTECH CO., LTD., priority 2011, published 2013).

Some results are limits rather than exact numbers.

For the assay, the target named is T1, human PDE10A (Homo sapiens, UniProt Q9Y233).
T1 construct: Full-length human PDE10A cDNA is amplified using PCR; made in house; host or cells: HEK293 cells, transiently transfected with Lipofectamine 2000; supernatant of the sonicated lysate after 10,000 g
T1 sequence (Q9Y233 1-779 isoform Q9Y233-1): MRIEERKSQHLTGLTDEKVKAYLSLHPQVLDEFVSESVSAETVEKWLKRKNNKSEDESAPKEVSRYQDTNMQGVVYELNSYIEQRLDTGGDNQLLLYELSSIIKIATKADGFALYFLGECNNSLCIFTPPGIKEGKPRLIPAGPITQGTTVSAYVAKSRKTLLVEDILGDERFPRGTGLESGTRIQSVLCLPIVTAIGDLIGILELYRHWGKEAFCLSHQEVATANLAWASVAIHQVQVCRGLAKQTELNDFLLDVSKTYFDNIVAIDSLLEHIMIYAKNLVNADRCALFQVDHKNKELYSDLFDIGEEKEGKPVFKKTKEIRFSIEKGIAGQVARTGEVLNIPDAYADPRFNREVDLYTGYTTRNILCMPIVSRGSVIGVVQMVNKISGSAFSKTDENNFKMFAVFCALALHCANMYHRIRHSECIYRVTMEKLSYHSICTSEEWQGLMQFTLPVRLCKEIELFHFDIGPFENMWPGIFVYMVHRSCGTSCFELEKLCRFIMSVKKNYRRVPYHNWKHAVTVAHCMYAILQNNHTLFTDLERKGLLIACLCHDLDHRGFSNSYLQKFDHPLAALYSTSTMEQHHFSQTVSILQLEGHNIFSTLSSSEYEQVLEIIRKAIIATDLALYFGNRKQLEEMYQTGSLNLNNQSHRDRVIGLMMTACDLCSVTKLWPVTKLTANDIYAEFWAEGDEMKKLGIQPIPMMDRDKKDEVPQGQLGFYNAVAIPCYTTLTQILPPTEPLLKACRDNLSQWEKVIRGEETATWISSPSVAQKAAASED
In words: PDE10A inhibition assay (IMAP fluorescence polarization). Format: biochemical. Particulars: hPDE10A enzyme from transfected HEK293 cell lysate, fluorescein-labeled cAMP/cGMP. How it is done:
Full-length human PDE10A cDNA is amplified using PCR and cloned into pcDNA3.0 vector (Invitrogen). After verified by DNA sequencing, the plasmid is transfected into HEK293 cell using the Lipofectamine 2000 reagent (Invitrogen). Cells are subsequently harvested and sonicated in cell lysis buffer. After centrifuged at 10,000 g for 20 minutes, supernatant containing cytosolic hPDE10A enzyme is collected and stored at −80° C. PDE10A inhibition assay is performed using the IMAP fluorescence polarization assay (Molecular Devices) according to the manufacturer's protocols. A fixed amount of the hPDE10A enzyme is pretreated with the test compounds, following the addition of fluorescein-labeled cAMP/cGMP. After 1 hour incubation, the IMAP binding reagent is added and incubated for another hour. The fluorescence polarization is then quantified with a fluorescence polarization reader Envision from Perkin Elmer. IC50 values are calculated using the Prism program (GraphPad Software).
Background: Polarisation of emitted light reports the rotation of a fluorescent probe.
In general, IC50 refers to the concentration at which inhibition is half-maximal. High values mean weaker potency, low ones greater potency. Consider `Cn1cc(-c2ccncc2)c(-c2ccc(C#Cc3ccc4ccccc4n3)cc2)n1` [Example 1, 2-((4-(1-methyl-4-(pyridin-4-yl)-1H-pyrazol-3-yl)phenyl)ethynyl)quinoline], for which the IC50 is ≤ 10 nM.
The value for `Cn1cc(-c2ccncc2)c(-c2ccc(C#Cc3ncc4ccccc4n3)cc2)n1` [Example 2, 2-((4-(1-methyl-4-(pyridin-4-yl)-1H-pyrazol-3-yl)phenyl)ethynyl)quinazoline] was ≤ 10 nM; that for `Cc1cccc(C#Cc2ccc(-c3nn(C)cc3-c3ccncc3)cc2)n1` [Example 3] was ≤ 10 nM; that for `CCc1cccc(C#Cc2ccc(-c3nn(C)cc3-c3ccncc3)cc2)n1` [Example 4, 2-Ethyl-6-((4-(1-methyl-4-(pyridin-4-yl)-1H-pyrazol-3-yl)phenyl)ethynyl)pyridine] was ≤ 10 nM.
The value for `Cn1cc(-c2ccncc2)c(-c2ccc(C#Cc3cccc(C4CC4)n3)cc2)n1` [Example 5, 2-cyclopropyl-6-((4-(1-methyl-4-(pyridin-4-yl)-1H-pyrazol-3-yl)phenyl)ethynyl)pyridine] was 10 to 100 nM; that for `Cc1ccc(C#Cc2ccc(-c3nn(C)cc3-c3ccncc3)cc2)nc1` [Example 6] was ≤ 10 nM; that for `Cn1cc(-c2ccncc2)c(-c2ccc(C#Cc3ccc(C4CC4)cn3)cc2)n1` [Example 7, 5-cyclopropyl-2-((4-(1-methyl-4-(pyridin-4-yl)-1H-pyrazol-3-yl)phenyl)ethynyl)pyridine] was ≤ 10 nM.
`Cn1cc(-c2ccncc2)c(-c2ccc(C#Cc3cccc(C(F)(F)F)n3)cc2)n1` [Example 8, 2-((4-(1-methyl-4-(pyridin-4-yl)-1H-pyrazol-3-yl)phenyl)ethynyl)-6-(trifluoromethyl)pyridine] gave an IC50 of 100 to 1000 nM.
The value for `Cn1cc(-c2ccncc2)c(-c2ccc(C#Cc3ccc(C(F)(F)F)cn3)cc2)n1` [Example 9, 2-((4-(1-methyl-4-(pyridin-4-yl)-1H-pyrazol-3-yl)phenyl)ethynyl)-5-(trifluoromethyl)pyridine] was 100 to 1000 nM; that for `COc1cccc(C#Cc2ccc(-c3nn(C)cc3-c3ccncc3)cc2)n1` [Example 10, 2-methoxy-6-((4-(1-methyl-4-(pyridin-4-yl)-1H-pyrazol-3-yl)phenyl)ethynyl)pyridine] was ≤ 10 nM; that for `C(#Cc1ccc2ccccc2n1)c1ccc(-c2n[nH]cc2-c2ccncc2)cc1` [Example 11, 2-((4-(4-(pyridin-4-yl)-1H-pyrazol-3-yl)phenyl)ethynyl)quinoline] was ≤ 10 nM.
Take `C(#Cc1ccc2ccccc2n1)c1ccc(-c2nn(C3CC3)cc2-c2ccncc2)cc1` [Example 12, 2-((4-(1-cyclopropyl-4-(pyridin-4-yl)-1H-pyrazol-3-yl)phenyl)ethynyl)quinoline]: the IC50 is ≤ 10 nM.
Consider `OCCn1cc(-c2ccncc2)c(-c2ccc(C#Cc3ccc4ccccc4n3)cc2)n1` [Example 13, 2-(4-(pyridin-4-yl)-3-(4-(quinolin-2-ylethynyl)phenyl)-1H-pyrazol-1-yl)ethanol], for which the IC50 was ≤ 10 nM.
In the case of `CNCCn1cc(-c2ccncc2)c(-c2ccc(C#Cc3ccc4ccccc4n3)cc2)n1` [Example 14, N-methyl-2-(4-(pyridin-4-yl)-3-(4-(quinolin-2-ylethynyl)phenyl)-1H-pyrazol-1-yl)ethanamine] it was ≤ 10 nM; in that of `CCn1cc(-c2ccncc2)c(-c2ccc(C#Cc3ccc4ccccc4n3)cc2)n1` [Example 15, 2-((4-(1-ethyl-4-(pyridin-4-yl)-1H-pyrazol-3-yl)phenyl)ethynyl)quinoline], ≤ 10 nM.
In the case of `COCCn1cc(-c2ccncc2)c(-c2ccc(C#Cc3ccc4ccccc4n3)cc2)n1` [Example 16, 2-((4-(1-(2-methoxyethyl)-4-(pyridin-4-yl)-1H-pyrazol-3-yl)phenyl)ethynyl)quinoline] it was ≤ 10 nM.
The value for `CN(C)CCn1cc(-c2ccncc2)c(-c2ccc(C#Cc3ccc4ccccc4n3)cc2)n1` [Example 17, N,N-dimethyl-2-(4-(pyridine-4-yl)-3-(4-(quinolin-2-ylethynyl)phenyl)-1H-pyrazol-1-yl)ethanamine] was ≤ 10 nM; that for `FC(F)(F)Cn1cc(-c2ccncc2)c(-c2ccc(C#Cc3ccc4ccccc4n3)cc2)n1` [Example 18] was ≤ 10 nM; that for `FCCn1cc(-c2ccncc2)c(-c2ccc(C#Cc3ccc4ccccc4n3)cc2)n1` [Example 19, 2-((4-(1-(2-fluoroethyl)-4-(pyridin-4-yl)-1H-pyrazol-3-yl)phenyl)ethynyl)quinoline] was ≤ 10 nM.
Regarding `C(#Cc1ccc2ccccc2n1)c1ccc(-c2ncncc2-c2ccncc2)cc1` [Example 20, 2-((4-(5-(pyridin-4-yl)pyrimidin-4-yl)phenyl)ethynyl)quinoline], the IC50 lay in the range of 10 to 100 nM.
In the case of `C(#Cc1ccc2ccccc2n1)c1ccc(-n2ncnc2-c2ccncc2)cc1` [Example 21, 2-((4-(5-(pyridin-4-yl)-1H-1,2,4-triazol-1-yl)phenyl)ethynyl)quinoline] it was 10 to 100 nM; in that of `C(#Cc1ccc2ccccc2n1)c1ccc(-n2nccc2-c2ccncc2)cc1` [Example 22, 2-((4-(5-(pyridin-4-yl)-1H-pyrazol-1-yl)phenyl)ethynyl)quinoline], ≤ 10 nM.
In the case of `C(#Cc1ccc2ccccc2n1)c1ccc(-n2cnnc2-c2ccncc2)cc1` [Example 23, 2-((4-(3-(pyridin-4-yl)-4H-1,2,4-triazol-4-yl)phenyl)ethynyl)quinoline] it was 10 to 100 nM; in that of `Cn1cc(-c2ccncc2)c(-c2ccc(C#Cc3ccc4ccccc4n3)nc2)n1` [Example 24, 2-(5-(1-methyl-4-pyridin-4-yl-1H-pyrazol-3-yl)pyridin-2-ylethynyl)quinoline], ≤ 10 nM.
In the case of `Cn1cc(-c2ccncc2)c(-c2ccc(C#Cc3ccc4ccccc4n3)cc2F)n1` [Example 25, 2-((3-fluoro-4-(1-methyl-4-(pyridin-4-yl)-1H-pyrazol-3-yl)phenyl)ethynyl)quinoline] it was ≤ 10 nM; in that of `Cn1cc(-c2ccncn2)c(-c2ccc(C#Cc3ccc4ccccc4n3)cc2)n1` [Example 26], 10 to 100 nM; in that of `Cn1cc(-c2ccncc2)c(-c2ccc(C#Cc3ccc4ccccc4n3)cn2)n1` [Example 27, 2-((6-(1-methyl-4-(pyridin-4-yl)-1H-pyrazol-3-yl)pyridin-3-yl)ethynyl)quinoline], ≤ 10 nM.
For `C(#Cc1ccc2ccccc2n1)c1ccc(-c2ccnn2-c2ccncc2)cc1` [Example 28, 2-((4-(1-(pyridin-4-yl)-1H-pyrazol-5-yl)phenyl)ethynyl)quinoline], the IC50 was ≤ 10 nM.
The value for `CCn1cc(-c2ccncc2)c(-c2ccc(C#Cc3ccc4ccccc4n3)nc2)n1` [Example 31, 2-((5-(1-ethyl-4-(pyridin-4-yl)-1H-pyrazol-3-yl)pyridin-2-yl)ethynyl)quinoline] was ≤ 10 nM; that for `FCCn1cc(-c2ccncc2)c(-c2ccc(C#Cc3ccc4ccccc4n3)nc2)n1` [Example 32, 2-((5-(1-(2-fluoroethyl)-4-(pyridin-4-yl)-1H-pyrazol-3-yl)pyridin-2-yl)ethynyl)quinoline] was ≤ 10 nM.
Take `COc1ccc(-c2cn(C)nc2-c2ccc(C#Cc3ccc4ccccc4n3)cc2)cc1` [Example 33, 2-((4-(4-(4-methoxyphenyl)-1-methyl-1H-pyrazol-3-yl)phenyl)ethynyl)quinoline]: the IC50 fell in the range of 10 to 100 nM.
In the case of `Cn1cc(-c2ccc(O)cc2)c(-c2ccc(C#Cc3ccc4ccccc4n3)cc2)n1` [Example 34, 4-(1-methyl-3-(4-(quinolin-2-ylethynyl)phenyl)-1H-pyrazol-4-yl)phenol], the IC50 lay within 10 to 100 nM.
In the case of `C(#Cc1ccc2ccccc2n1)c1ccc(-c2c[nH]nc2-c2ccncc2)cc1` [Example 35, 2-((4-(3-(pyridin-4-yl)-1H-pyrazol-4-yl)phenyl)ethynyl)quinoline] it was ≤ 10 nM; in that of `Cn1cc(-c2ccc(C#Cc3ccc4ccccc4n3)cc2)c(-c2ccncc2)n1` [Example 36, 2-((4-(1-methyl-3-(pyridin-4-yl)-1H-pyrazol-4-yl)phenyl)ethynyl)quinoline], ≤ 10 nM; in that of `Cn1ncc(-c2ccc(C#Cc3ccc4ccccc4n3)cc2)c1-c1ccncc1` [Example 37, 2-((4-(1-methyl-5-(pyridin-4-yl)-1H-pyrazol-4-yl)phenyl)ethynyl)quinoline], 10 to 100 nM.
